The record followed here is patent US11180504B2 (ORCHID PHARMA LTD., priority 2016, dated 2021).

Assay [1] relates to methicillin-sensitive Staphylococcus aureus. Nature of the assay: MIC by broth micro-dilution (CLSI), methicillin-sensitive S. aureus. The class given is cell-based. The following applies: Staphylococcus aureus, ATCC 29213 / MSSA, MSSA S. aureus ATCC29213; read-out: MIC. For orientation: Dilution methods test growth across graded concentrations, often in twofold steps.
Assay [2] relates to carbapenem sensitive Escherichia coli. Nature of the assay: MIC by broth micro-dilution (CLSI), carbapenem sensitive E. coli. The class given is cell-based. The following applies: Escherichia coli, ATCC25922, ESBL −ve E. coli ATCC25922; read-out: MIC.
Assay [3] deals with carbapenemase producing K. pneumoniae. As to the kind of experiment: MIC by broth micro-dilution (CLSI), carbapenemase producing K. pneumoniae. The following applies: Klebsiella pneumoniae, ATCCBAA1705, KPC-2 K. pneumoniae ATCC BAA-1705; read-out: MIC. The class given is cell-based, Klebsiella pneumoniae.
Assay [4] relates to carbapenem sensitive Pseudomonas aeruginosa. Nature of the assay: MIC by broth micro-dilution (CLSI), carbapenem sensitive P. aeruginosa. The class given is cell-based. The following applies: Pseudomonas aeruginosa, ATCC27853, Meropenem susceptible P. aeruginosa ATCC27853; read-out: MIC.

In brackets after ≈: the same amount, converted by molar mass.

In general, MIC refers to the lowest concentration found to suppress growth. Turning to `CNCC(=O)N[C@H](C)[C@H]1C(=O)N2C(C(=O)O)=C(S[C@@H]3CN[C@H](CNC(=O)[C@@H]4CSCN4)C3)[C@H](C)[C@H]12` [Example 291], the MIC amounted to 32 µg/mL (≈ 60.8 µM) in assay [1], 2 µg/mL (≈ 3.8 µM) in assay [2], 2 µg/mL (≈ 3.8 µM) in assay [3] and 8 µg/mL (≈ 15.2 µM) in assay [4].

Regarding `CNCC(=O)N[C@H](C)[C@H]1C(=O)N2C(C(=O)O)=C(S[C@@H]3CN[C@H](C(=O)N4CC(C)(N)C4)C3)[C@H](C)[C@H]12` [Example 292], the MIC is 128 µg/mL (≈ 259 µM) in assay [1], 4 µg/mL (≈ 8.09 µM) in assay [2], 8 µg/mL (≈ 16.2 µM) in assay [3] and 16 µg/mL (≈ 32.3 µM) in assay [4].

For the compound `C[C@@H](NCC1CC1)[C@H]1C(=O)N2C(C(=O)O)=C(S[C@@H]3CN[C@H](C(=O)N(C)C)C3)[C@H](C)[C@H]12` [Example 293], the MIC was 128 µg/mL (≈ 293 µM) in assay [1], 32 µg/mL (≈ 73.3 µM) in assay [2], 128 µg/mL (≈ 293 µM) in assay [3] and more than 128 µg/mL in assay [4].

Turning to `C[C@@H](NC(=O)Cn1cnnn1)[C@H]1C(=O)N2C(C(=O)O)=C(SC3CN(C4=NCCS4)C3)[C@H](C)[C@@H]12` [Example 294], the MIC in assay [1] came to 1 µg/mL (≈ 2.03 µM); in assay [2], 0.06 µg/mL (≈ 0.122 µM); in assay [3] it was 1 µg/mL (≈ 2.03 µM); in assay [4], 16 µg/mL (≈ 32.5 µM).

In the case of `CNCc1nnc(CC(=O)N[C@H](C)[C@H]2C(=O)N3C(C(=O)O)=C(S[C@@H]4CN[C@H](C(=O)N(C)C)C4)[C@H](C)[C@H]23)o1` [Example 295], the MIC in assay [1] is 16 µg/mL (≈ 29.9 µM); in assay [2], 2 µg/mL (≈ 3.73 µM); in assay [3], 16 µg/mL (≈ 29.9 µM); in assay [4], 64 µg/mL (≈ 119 µM).

In the case of `C[C@@H](NC(=O)Cn1ccnn1)[C@H]1C(=O)N2C(C(=O)O)=C(S[C@@H]3CN[C@H](C(=O)N(C)C)C3)[C@H](C)[C@H]12` [Example 296], the MIC in assay [1] came to 4 µg/mL (≈ 8.14 µM); in assay [2], 0.5 µg/mL (≈ 1.02 µM); in assay [3], 2 µg/mL (≈ 4.07 µM); in assay [4] it was 64 µg/mL (≈ 130 µM).

In the case of `CNCC(=O)N[C@H](C)[C@H]1C(=O)N2C(C(=O)O)=C(S[C@@H]3CN[C@H](C(=O)N4C[C@@H](N)[C@H](O)C4)C3)[C@H](C)[C@H]12` [Example 297], the MIC in assay [1] turned out to be 16 µg/mL (≈ 31.3 µM); in assay [2], 1 µg/mL (≈ 1.96 µM); in assay [3], 2 µg/mL (≈ 3.92 µM); in assay [4], 4 µg/mL (≈ 7.83 µM).

Regarding `C[C@@H](NC(=O)Cn1cnnn1)[C@H]1C(=O)N2C(C(=O)O)=C(S[C@@H]3CN[C@H](C(=O)N4CC[C@@H](N)C4)C3)[C@H](C)[C@H]12` [Example 298, (4R,5S,6R)-6-((R)-1-(2-(1H-tetrazol-1-yl)acetamido)ethyl)-3-((3S,5S)-5-((R)-3-aminopyrrolidine-1-carbonyl)pyrrolidin-3-ylthio)-4-methyl-7-oxo-1-azabicyclo[3.2.0]hept-2-ene-2-carboxylic acid], the MIC was 1 µg/mL (≈ 1.87 µM) in assay [1], 0.125 µg/mL (≈ 0.234 µM) in assay [2], 1 µg/mL (≈ 1.87 µM) in assay [3] and 1 µg/mL (≈ 1.87 µM) in assay [4].

Turning to `C[C@@H](NC(=O)CC(N)=O)[C@H]1C(=O)N2C(C(=O)O)=C(S[C@@H]3CN[C@H](C(=O)N4CC[C@@H](N)C4)C3)[C@H](C)[C@H]12` [Example 299, (4R,5S,6R)-6-((R) - 1-(3-amino-3-oxopropanamido)ethyl)-3-((3S,5S)-5-((R)-3-aminopyrrolidine-1-carbonyl)pyrrolidin-3-ylthio)-4-methyl-7-oxo-1-azabicyclo[3.2.0]hept-2-ene-2-carboxylic acid], the MIC in assay [1] amounted to 16 µg/mL (≈ 31.5 µM); in assay [2] it was 4 µg/mL (≈ 7.86 µM); in assay [3] it was 8 µg/mL (≈ 15.7 µM); in assay [4] it was 16 µg/mL (≈ 31.5 µM).

Turning to `C[C@@H](NC(=O)Cn1cncn1)[C@H]1C(=O)N2C(C(=O)O)=C(S[C@@H]3CN[C@H](C(=O)N(C)C)C3)[C@H](C)[C@H]12` [Example 300, (4R,5S,6R)-6-((R) - 1-(2-(1H-1,2,4-triazol-1-yl)acetamido)ethyl)-3-((3S,5S)-5-(dimethylcarbamoyl)pyrrolidin-3-ylthio)-4-methyl-7-oxo-1-azabicyclo[3.2.0]hept-2-ene-2-carboxylic acid], the MIC stood at 16 µg/mL (≈ 32.5 µM) in assay [1], 1 µg/mL (≈ 2.03 µM) in assay [2], 4 µg/mL (≈ 8.14 µM) in assay [3] and 128 µg/mL (≈ 260 µM) in assay [4].

As for `C[C@@H](NC(=O)Cc1nnn(C)n1)[C@H]1C(=O)N2C(C(=O)O)=C(S[C@@H]3CN[C@H](C(=O)N(C)C)C3)[C@H](C)[C@H]12` [Example 301, (4R,5S,6R)-3-((3S,5S)-5-(dimethylcarbamoyl)pyrrolidin-3-ylthio)-4-methyl-6-((R) - 1-(2-(2-methyl-2H-tetrazol-5-yl)acetamido)ethyl)-7-oxo-1-azabicyclo[3.2.0]hept-2-ene-2-carboxylic acid], the minimum inhibitory concentration (MIC) was 16 µg/mL (≈ 31.6 µM) in assay [1], 4 µg/mL (≈ 7.9 µM) in assay [2], 64 µg/mL (≈ 126 µM) in assay [3] and more than 128 µg/mL in assay [4].

As for `C[C@@H](NC(=O)Cc1nnn(C)n1)[C@H]1C(=O)N2C(C(=O)O)=C(S[C@@H]3CN[C@H](C(=O)N4CC[C@@H](N)C4)C3)[C@H](C)[C@H]12` [Example 302], the MIC stood at 2 µg/mL (≈ 3.65 µM) in assay [1], 1 µg/mL (≈ 1.83 µM) in assay [2], 16 µg/mL (≈ 29.2 µM) in assay [3] and 128 µg/mL (≈ 234 µM) in assay [4].

For the compound `C[C@@H](NC(=O)c1cnccn1)[C@H]1C(=O)N2C(C(=O)O)=C(S[C@@H]3CN[C@H](C(=O)N(C)C)C3)[C@H](C)[C@H]12` [Example 303, (4R,5S,6R)-3-((3S,5S)-5-(dimethylcarbamoyl)pyrrolidin-3-ylthio)-4-methyl-7-oxo-6-((R) - 1-(pyrazine-2-carboxamido)ethyl) - 1-azabicyclo[3.2.0]hept-2-ene-2-carboxylic acid], the MIC in assay [1] is 2 µg/mL (≈ 4.09 µM); in assay [2], 4 µg/mL (≈ 8.19 µM); in assay [3] it was 64 µg/mL (≈ 131 µM); in assay [4], more than 128 µg/mL.

As to `C[C@@H](NC(=O)Cc1nnnn1C)[C@H]1C(=O)N2C(C(=O)O)=C(S[C@@H]3CN[C@H](C(=O)N(C)C)C3)[C@H](C)[C@H]12` [Example 304, (4R,5S,6R)-3-((3S,5S)-5-(dimethylcarbamoyl)pyrrolidin-3-ylthio)-4-methyl-6-((R) - 1-(2-(1-methyl-1H-tetrazol-5-yl)acetamido)ethyl)-7-oxo-1-azabicyclo[3.2.0]hept-2-ene-2-carboxylic acid], the MIC in assay [1] was 8 µg/mL (≈ 15.8 µM); in assay [2] it was 1 µg/mL (≈ 1.97 µM); in assay [3], 4 µg/mL (≈ 7.9 µM); in assay [4] it was more than 128 µg/mL.

With `C[C@@H](NC(=O)Cn1cnnn1)[C@H]1C(=O)N2C(C(=O)O)=C(S[C@@H]3CN[C@H](CNS(N)(=O)=O)C3)[C@H](C)[C@H]12` [Example 305, (4R,5S,6R)-6-((R) - 1-(2-(1H-tetrazol-1-yl)acetamido)ethyl)-4-methyl-7-oxo-3-((3S,5S)-5-((sulfamoylamino)methyl)pyrrolidin-3-ylthio)-1-azabicyclo[3.2.0]hept-2-ene-2-carboxylic acid], the MIC stood at 2 µg/mL (≈ 3.78 µM) in assay [1], 0.25 µg/mL (≈ 0.472 µM) in assay [2], 1 µg/mL (≈ 1.89 µM) in assay [3] and 8 µg/mL (≈ 15.1 µM) in assay [4].

Turning to `C[C@@H](NC(=O)Cn1cnnn1)[C@H]1C(=O)N2C(C(=O)[O-])=C(SC3Cn4cnc[n+]4C3)[C@H](C)[C@H]12` (stereo partly drawn) [Example 306, (4R,5S,6R)-6-((R) - 1-(2-(1H-tetrazol-1-yl)acetamido)ethyl)-3-(6,7-dihydro-5H-pyrazolo[1,2-a][1,2,4]triazol-4-ium-6-ylthio)-4-methyl-7-oxo-1-azabicyclo[3.2.0]hept-2-ene-2-carboxylate], the MIC is 2 µg/mL (≈ 4.35 µM) in assay [1], 0.25 µg/mL (≈ 0.544 µM) in assay [2], 1 µg/mL (≈ 2.18 µM) in assay [3] and 4 µg/mL (≈ 8.71 µM) in assay [4].
